This is an account of results in patent US11459375B2, “Cyclic peptides for the treatment of Graves' disease” (advanceCOR GmbH, priority 2017, dated 2022).

For one assay, the system named is Ad-TSHR-immunized mice. Nature of the assay: retro-orbital fibrosis by digitized image analysis of orbital sections. The note with it: 1 mg/kg IV 4-weekly, Masson's stain. The class given is in vivo, BALB/c mice. The procedure: FIG. 6 summarizes the results of histological investigation of orbital sections. […] The sections were taken at defined distances from the mouse bregma. Interstitial connective tissue was then stained in green (Masson's trichrome stain). For clarity, both HE stained sections (left panels) and Masson's stained sections (right panels) are shown next to each other. FIG. 6B: the effects of peptide therapy on severity of retro-orbital fibrosis were evaluated in histological sections of all available animals. The measurements were carried out in Ad-TSHR-immunized mice treated by either 4-weekly injections with vehicle (0.9% NaCl, “Graves' no therapy”, n=9 mice), or administrations of 1 mg/kg body weight of peptide 836 (11 mice) or TSHR-Fc (11 mice). […] The mean total fibrosis volumes of each right and left orbita, as assessed by digitized image analysis of all sections, and consecutive integrations, are shown with SEM. […]
After euthanasia, dissection of the thyroid glands was performed under a stereomicroscope, as described before (22). […] Thyroid volumes (mm^3) were calculated from the sum of the areas of each section over the whole cutting region. Myocardial volumes (mm^3) were calculated in a similar way as described for thyroid glands from the sum of the areas of each section over whole cutting region (5 to 6 slides, depending on respective size of the hearts). […]

In assay [1] the test system is TSHR-overexpressing CHO cells JP2626. Kind of assay: ex vivo TSHR-dependent cAMP stimulation in test cells. It counts as cell-based, human. The note with it: 100 μg/ml test substance, anti-TSHR-antibody positive samples. The procedure: In FIG. 8 the effects of peptides on anti-TSHR antibody titers (A) and on cAMP stimulation in TSHR-expressing test cells (B) were studied ex vivo (anti-TSHR-antibody positive serum samples). Each measurement was carried out in 4 samples. Results are shown as % of untreated controls with standard errors of the means (SEM). Significance was tested by analysis of variance (ANOVA) between groups, followed by LSD post-hoc testing. **p<0.001, compared to controls
To investigate effects on TSHR-dependent cAMP stimulation ex vivo, TSHR-overexpressing CHO cells JP2626 were prepared as described above. Then, 100 μg/ml peptide 829, peptide of the invention 836 or fusion protein TSHR-Fc were added to the JP2626 cells. After incubation for 2.5 hours at 37° C. the cAMP release in the medium was measured in duplicates by a competitive immunoassay ELISA (#EMSCAMPL, Thermo Fisher Scientific, Waltham, Mass., USA).

Peptide text beside a SMILES is read from it.

Consider `CC[C@H](C)[C@@H]1NC(=O)[C@H](C(C)C)NC(=O)[C@H]([C@@H](C)O)NC(=O)[C@H](CC(C)C)NC(=O)[C@H](Cc2ccc(O)cc2)NC(=O)[C@H](CCCCN)NC(=O)[C@H](CC(N)=O)NC(=O)[C@H](CCCCN)NC(=O)[C@H](CC(N)=O)NC(=O)[C@H](CC(C)C)NC(=O)[C@H](Cc2ccc(O)cc2)NC(=O)[C@H](C(C)C)NC(=O)[C@H](C)NC(=O)[C@H](CC(=O)O)NC(=O)[C@H](CC(C)C)NC(=O)[C@H](CCCCN)NC(=O)[C@H]([C@@H](C)O)NC(=O)CNC(=O)[C@H](CC(N)=O)NC(=O)[C@H](Cc2ccccc2)NC(=O)[C@H](C)NC(=O)[C@H](Cc2ccc(O)cc2)NC(=O)CNC(=O)[C@H](CC(=O)O)NC1=O` [peptide 836] (cyclo(GYAFNGTKLDAVYLNKNKYLTVID)), for which, in the assay on Ad-TSHR-immunized mice, the retro-orbital fibrosis result is reported as “completely reversed”.
Regarding “TSHR-Fc: fusion protein: first 289 amino acids of human TSH receptor (A-subunit), GGR linker and Fc portion of human IgG2”, the “cAMP-stimulating potency in TSHR-expressing test cells ex vivo” value in assay [1] is “reduction of titer and activity”.
